Data taken from PubChem BioAssay AID248 (DTP/NCI, 2004).
Toxic doses and inconclusive results are not listed. Cut-off read from the data, not from the text of the source: active = T/C of 150% or more; inactive = T/C below 125%.

Test system: L1210 leukemia ip in BDF1 mice, survival T/C
Experiment: NCI In Vivo Anticancer Drug Screen. Data for tumor model L1210 Leukemia (intraperitoneal) in B6D2F1 (BDF1) mice
Details: endpoint: mean survival time, higher = longer survival
Method in brief: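 Mice bearing the transplanted tumor received compound or vehicle. Survival of the treated group was divided by that of the vehicle-treated control group to give the ratio.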

[1] = dose: 100.0 mg/kg/injection, schedule: Q04DX002 (ip), vehicle: Klucel (hydroxypropylcellulose) (HPC)
[2] = dose: 200.0 mg/kg/injection, schedule: Q04DX002 (ip), vehicle: Klucel (hydroxypropylcellulose) (HPC)
[3] = dose: 400.0 mg/kg/injection, schedule: Q04DX002 (ip), vehicle: Klucel (hydroxypropylcellulose) (HPC)
[4] = dose: 100.0 mg/kg/injection, schedule: Q01DX001 (ip), vehicle: carboxymethylcellulose (CMC)
[5] = dose: 200.0 mg/kg/injection, schedule: Q01DX001 (ip), vehicle: carboxymethylcellulose (CMC)
[6] = dose: 400.0 mg/kg/injection, schedule: Q01DX001 (ip), vehicle: carboxymethylcellulose (CMC)
[7] = dose: 25.0 mg/kg/injection, schedule: Q01DX009 (ip), vehicle: saline
[8] = dose: 50.0 mg/kg/injection, schedule: Q01DX009 (ip), vehicle: saline
[9] = dose: 100.0 mg/kg/injection, schedule: Q01DX009 (ip), vehicle: saline
[10] = dose: 100.0 mg/kg/injection, schedule: Q04DX003 (ip), vehicle: saline
[11] = dose: 25.0 mg/kg/injection, schedule: Q04DX003 (ip), vehicle: Klucel (hydroxypropylcellulose) (HPC)
[12] = dose: 50.0 mg/kg/injection, schedule: Q04DX003 (ip), vehicle: Klucel (hydroxypropylcellulose) (HPC)
[13] = dose: 100.0 mg/kg/injection, schedule: Q01DX009 (ip), vehicle: Klucel (hydroxypropylcellulose) (HPC)
[14] = dose: 100.0 mg/kg/injection, schedule: Q04DX003 (ip), vehicle: Klucel (hydroxypropylcellulose) (HPC)
[15] = dose: 200.0 mg/kg/injection, schedule: Q01DX009 (ip), vehicle: Klucel (hydroxypropylcellulose) (HPC)
[16] = dose: 200.0 mg/kg/injection, schedule: Q04DX003 (ip), vehicle: Klucel (hydroxypropylcellulose) (HPC)
[17] = dose: 100.0 mg/kg/injection, schedule: Q01DX001 (ip), vehicle: saline

Measured: T/C

OC1CSCCc2ccccc21 (stereo not given)
inactive: dose: 100.0 mg/kg/injection, schedule: Q01DX001 (ip), vehicle: other 100 % of control | dose: 200.0 mg/kg/injection, schedule: Q01DX001 (ip), vehicle: other 98 % of control | dose: 400.0 mg/kg/injection, schedule: Q01DX001 (ip), vehicle: other 114 % of control

Cc1cccc(C)c1OC(=O)Nc1ccccc1Cl
inactive: [1] 95 % of control | [2] 106 % of control | [3] 103 % of control

Nc1nc(N)c(N=Nc2ccc(S(N)(=O)=O)cc2)cc1N=Nc1ccccc1
inactive: [4] 94 % of control | [5] 94 % of control | [6] 100 % of control

COCCCNCCCN1CC1
inactive: dose: 31.25 mg/kg/injection, schedule: Q04DX003 (ip), vehicle: saline 105 % of control | dose: 62.5 mg/kg/injection, schedule: Q01DX009 (ip), vehicle: saline 106 % of control | dose: 62.5 mg/kg/injection, schedule: Q04DX003 (ip), vehicle: saline 114 % of control

N#CC1c2ccccc2-c2ccccc2N1C(=O)c1ccccc1 (stereo not given)
inactive: [1] 93 % of control | [2] 96 % of control | [3] 107 % of control

O=C(CCl)NCc1ccc([N+](=O)[O-])cc1
inactive: dose: 50.0 mg/kg/injection, schedule: Q01DX001 (ip), vehicle: Klucel (hydroxypropylcellulose) (HPC) 100 % of control | dose: 100.0 mg/kg/injection, schedule: Q01DX001 (ip), vehicle: Klucel (hydroxypropylcellulose) (HPC) 103 % of control | dose: 200.0 mg/kg/injection, schedule: Q01DX001 (ip), vehicle: Klucel (hydroxypropylcellulose) (HPC) 101 % of control

CCC(C)C(CCCN1CCCCC1)(CNC(=O)CN(CC)CC)c1cccc2ccccc12 (stereo not given)
inactive: [7] 96 % of control | [8] 100 % of control | [9] 103 % of control | [10] 103 % of control

NC1=NC(=O)C(c2ccccc2)O1 (stereo not given)
inactive: dose: 25.0 mg/kg/injection, schedule: Q01DX009 (ip), vehicle: Klucel (hydroxypropylcellulose) (HPC) 88 % of control | [11] 92 % of control | dose: 50.0 mg/kg/injection, schedule: Q01DX009 (ip), vehicle: Klucel (hydroxypropylcellulose) (HPC) 94 % of control | [12] 95 % of control | [13] 91 % of control | [14] 103 % of control | [15] 102 % of control | [16] 103 % of control | dose: 400.0 mg/kg/injection, schedule: Q04DX003 (ip), vehicle: Klucel (hydroxypropylcellulose) (HPC) 89 % of control

NNC(=O)c1ccncc1
inactive: dose: 12.5 mg/kg/injection, schedule: Q01DX009 (ip), vehicle: saline 98 % of control | dose: 19.25 mg/kg/injection, schedule: Q01DX Z (ip), vehicle: carboxymethylcellulose (CMC) 103 % of control | [7] 107 % of control | dose: 25.0 mg/kg/injection, schedule: Q04DX003 (ip), vehicle: saline 108 % of control | dose: 38.5 mg/kg/injection, schedule: Q01DX Z (ip), vehicle: carboxymethylcellulose (CMC) 93 % of control | [8] 104 % of control | dose: 50.0 mg/kg/injection, schedule: Q04DX003 (ip), vehicle: saline 101 % of control | dose: 77.0 mg/kg/injection, schedule: Q01DX Z (ip), vehicle: carboxymethylcellulose (CMC) 106 % of control | [17] 98 % of control | [9] 100 % of control | [10] 101 % of control | dose: 154.0 mg/kg/injection, schedule: Q01DX Z (ip), vehicle: carboxymethylcellulose (CMC) 108 % of control | dose: 200.0 mg/kg/injection, schedule: Q04DX003 (ip), vehicle: saline 86 % of control

O=c1[nH]cc(CCC(F)(F)F)c(=O)[nH]1
inactive: dose: 100.0 mg/kg/injection, schedule: Q04DX002 (ip), vehicle: sodium bicarbonate 102 % of control | dose: 200.0 mg/kg/injection, schedule: Q04DX002 (ip), vehicle: sodium bicarbonate 102 % of control

CC(C)(C)/C=N/Nc1ccc([N+](=O)[O-])cc1[N+](=O)[O-]
inactive: [13] 108 % of control | [15] 106 % of control | dose: 400.0 mg/kg/injection, schedule: Q01DX009 (ip), vehicle: Klucel (hydroxypropylcellulose) (HPC) 102 % of control

COc1ccc2c(c1)C(=O)CCC2(C)C
inactive: dose: 50.0 mg/kg/injection, schedule: Q01DX009 (ip), vehicle: saline with Tween-80 100 % of control | dose: 100.0 mg/kg/injection, schedule: Q01DX009 (ip), vehicle: saline with Tween-80 86 % of control | dose: 200.0 mg/kg/injection, schedule: Q01DX009 (ip), vehicle: saline with Tween-80 105 % of control

CCCCCCC[CH2][Sn](=[O])[CH2]CCCCCCC
inactive: dose: 3.12 mg/kg/injection, schedule: Q01DX009 (ip), vehicle: saline with Tween-80 95 % of control | dose: 6.25 mg/kg/injection, schedule: Q01DX009 (ip), vehicle: saline with Tween-80 100 % of control | dose: 100.0 mg/kg/injection, schedule: Q04DX003 (ip), vehicle: acetone 102 % of control

O=C(O)COc1cc(Cl)c(Cl)cc1Cl (tested in a mixture with another compound)
inactive: dose: 25.0 mg/kg/injection, schedule: Q01DX001 (ip), vehicle: saline 110 % of control | dose: 50.0 mg/kg/injection, schedule: Q01DX001 (ip), vehicle: saline 93 % of control

c1ccc(C2CO2)cc1 (stereo not given)
inactive: [11] 97 % of control | dose: 50.0 mg/kg/injection, schedule: Q01DX001 (ip), vehicle: carboxymethylcellulose (CMC) 95 % of control | [12] 90 % of control | [4] 101 % of control | [14] 98 % of control | [5] 97 % of control | [6] 97 % of control

Nc1ncnc2c1ncn2C1CCC(CO)O1 (stereo not given)
inactive: [17] 103 % of control | dose: 200.0 mg/kg/injection, schedule: Q01DX001 (ip), vehicle: saline 115 % of control | dose: 400.0 mg/kg/injection, schedule: Q01DX001 (ip), vehicle: saline 105 % of control

c1ccc2c(c1)N=C1CCCC3CCCC123 (stereo not given)
inactive: dose: 100.0 mg/kg/injection, schedule: Q## X003 (ip), vehicle: saline 98 % of control | dose: 200.0 mg/kg/injection, schedule: Q## X003 (ip), vehicle: saline 104 % of control | dose: 400.0 mg/kg/injection, schedule: Q## X003 (ip), vehicle: saline 96 % of control

CC(O)CN1c2ccccc2Sc2ccc(Cl)cc21 (stereo not given)
inactive: [4] 97 % of control | [5] 92 % of control | [6] 95 % of control

Cc1c2oc3c(C)ccc(C(=O)OCCN4CCOCC4)c3nc-2c(C(=O)OCCN2CCOCC2)c(N)c1=O
inactive: dose: 100.0 mg/kg/injection, schedule: Q04DX002 (ip), vehicle: saline 98 % of control | dose: 200.0 mg/kg/injection, schedule: Q04DX002 (ip), vehicle: saline 103 % of control

COc1cccc(CN)c1
inactive: dose: 100.0 mg/kg/injection, schedule: Q04DX003 (ip), vehicle: saline with Tween-80 99 % of control | dose: 200.0 mg/kg/injection, schedule: Q04DX003 (ip), vehicle: saline with Tween-80 100 % of control | dose: 400.0 mg/kg/injection, schedule: Q04DX003 (ip), vehicle: saline with Tween-80 94 % of control

CN1OCC2CCCC(c3ccccc3)C21 (stereo not given)
inactive: [14] 97 % of control | [16] 100 % of control
